Assay results taken from patent publication US20230181524A1, “PHARMACEUTICAL COMBINATION AND USE THEREOF” (NATURAL MEDICINE INSTITUTE OF ZHEJIANG YANGSHENGTANG CO., …, priority 2020, published 2023).
Read-outs that look alike come from different tables or passages of the source.

Assays:
[1] = tested on: MC38 human colon cancer cells; assay: Cell viability, method of Example 1; settings: MC38 cells
Experimental: (§1) (1) Cells were plated in a 10 cm culture plate to grow a density of about 90%. The medium was removed, and the adherent cells were washed once with a PBS buffer. 1 mL of trypsin was added, and immediately discarded after mixing well. The cells were placed in the incubator and digested for about 5 min, and then about 10 ml of fresh medium was added. 10 μL was taken for counting.
(§2) (2) 10 μL of the well-mixed cells were taken and mixed into 10 μL of Trypan Blue solution, and counted.
(§3) (3) After counting, the cells were diluted to 1×10^5 cells/ml. The diluted cells were mixed well, and plated into a 24-well plate with 500 μL per well, i.e., about 50,000 cells per well.
(§4) (4) The cells plated in the 24-well plate were cultured for about 24h, and then drugs were added. Various test groups comprise 5 groups as follows: the single-drug group of PKF118-310 (with a concentration of 0.1 μM), the group of ascorbic acid (with a concentration of 0.5 mM), the group of PKF118-310 (with a concentration of 0.1 μM) in combination with ascorbic acid (with a concentration of 0.5 mM); the control group that is a cell group to which only solvent DMSO is added; and the blank group that is a group to which no cell is added and only solvent (DMSO) is added.
(§5) (5) After 24h of dosing, the medium was discarded. About 150 μL of trypsin was added and then discarded. The cells were digested for 5 min;
(§6) (6) After digestion, equivalent amounts of PBS were added into each well and mixed uniformly. Then, 10 μL/well of Trypan Blue solution was added and mixed uniformly. 10 μL of the well-mixed solution was taken and counted. In accordance with “Cell viability=Cell Count of Test Group/Cell Count of Control Group×100%”, the cell viability of various groups was calculated.
(§7) The inhibitory effect of PKF118-310 on the MC38 human colon cancer cells and the HCT116 human […] cancer cells was detected in accordance with the corresponding method of Example 1.

[2] = tested on: HCT116 human colon cancer cells; assay: cells; settings: HCT116 cells
Experimental: as §1, §2, §3, §4, §5, §6, §7

[3] = tested on: T cells; assay: Cell viability of immune cells by cell count; format: cell-based; settings: 0.1 μM PKF118-310 in combination with 0.5 mM ascorbic acid, 24h
Experimental: (§8) Immune cells comprise T cells and Macrophages, wherein the T cells are cultured with a 1640 medium, and the macrophages are cultured with a DMEM medium. The particular procedures are follows:
(§9) 10 μL was taken for counting.
(§10) (5) After 24h of dosing, the medium was discarded. […] The cells were digested for 5 min;

[4] = tested on: macrophages; assay: Cell viability of immune cells by cell count; format: cell-based; settings: 0.1 μM PKF118-310 in combination with 0.5 mM ascorbic acid, 24h
Experimental: as §8, §9, §10

[5] = tested on: DB lymphoma cells
Experimental: as §1, §2, §3, §4, §5, §6
For example, as for the DB lymphoma cells, the control group involves adding the solvent DMSO alone, the Vc group involves adding 2 mM of ascorbic acid, the low-dose PKF group involves adding 2 μM of PKF118-310, the low-dose PKF+Vc group involves adding 2 μM of PKF118-310 and 2 mM of ascorbic acid, the high-dose PKF group involves adding 5 μM of PKF118-310, and the high-dose PKF+the Vc group involves adding 5 μM of PKF118-310 and 2 mM of ascorbic acid.

[6] = 0.3 μM in combination with 0.5 mM sodium ascorbate

`Cn1ncnc2c(=O)n(C)c(=O)nc1-2` [PKF118-310] was tested, and the CDI value [1, 6] was 0.15, the cell viability [1, 6] was 11% and the cell viability ([1]; single-drug 0.3 μM) was 88%. It also gave a CDI value [2, 6] of 0.24, a cell viability [2, 6] of 22% and a cell viability ([2]; single-drug 0.3 μM) of 92%. The “effect on immune cells (cell viability)” value [3] was “does not have effect on the immune cells”, the “effect on immune cells (cell viability)” value [4] was “does not have effect on the immune cells” and the cell viability ([5]; 2 μM and 2 mM ascorbic acid) was 12%. For the same compound, the cell viability ([5]; 5 μM and 2 mM ascorbic acid) was 11%, the CDI value ([5]; high-dose (5 μM) with 2 mM ascorbic acid) was 0.18 and the CDI value ([5]; low-dose (2 μM) with 2 mM ascorbic acid) was 0.17. The cell viability ([5]; single drug 2 μM (low-dose)) was 72% and the cell viability ([5]; single drug 5 μM (high-dose)) was 67%.
